Square brackets hold non-standard residues; d marks the D form. Ends that are not written are not given here. Peptide text beside a SMILES is read from it. Phe(3-Br) = N[C@@H](Cc1cccc(Br)c1)C(=O)O; Phe(4-Br) = N[C@@H](Cc1ccc(Br)cc1)C(=O)O; Phe(3-I) = N[C@@H](Cc1cccc(I)c1)C(=O)O; 2Nal = N[C@@H](Cc1ccc2ccccc2c1)C(=O)O; β3hF = N[C@H](CC(=O)O)Cc1ccccc1; Cha = N[C@@H](CC1CCCCC1)C(=O)O; Phe∗ = not defined here; Trp∗ = not defined here
Test: Peptide gelation (tilted tube / inverted vial test, minimum gelation concentration)
Format: physicochemical
Details: for Gelation behaviour: 2% w/v, PBS 10 mM, pH 7.4; for Minimum gelation concentration (w/v % in PBS): '/' = no gel
Protocol: The peptide gelation occurred by dissolving the TFA salt of the hexapeptide (2 mg) in 100 μL of PBS solution (pH 7.4) or physiological saline solution (0.9% NaCl).
Both peptides 2 and 4 (Table 1) gave a transparent gel in the same conditions (PBS 10 mM at pH 7.4 with a minimum gelation concentration of 24 mM; 2% w/v). To evaluate the mechanical properties of these hydrogels in a more quantitative manner, rheological experiments were performed. The viscoelastic properties of the peptide hydrogels were measured by dynamic rheometry at 37° C. This technique allowed to measure the storage modulus G′ (corresponding to the material's stiffness or rigidity), loss modulus G″ (corresponding to the viscous properties of the material) and loss factor tan (o) (ratio of G″ over G′). According to the Winter-Chambon criterion, a material reaches gelation in rheological terms if the phase angle o gets frequency-independent (F. Chambon et al., 1987 and H. Winter et al., 1987).
The peptide gelation occurred by dissolving the TFA salt of the peptide in 100 μL of PBS solution or physiological saline solution (0.9% NaCl) (pH 7.4).
The peptide gelation occurs by dissolving the TFA salt of the hydrogelator (1 or 2 mg) in 100 μL of aqueous media, PBS solution (pH 7.4) or physiological saline solution (0.9% NaCl). After successive vortexing and sonication, the gel is left to rest overnight at room temperature.
The hydrogelation was realized under physiologically relevant conditions, namely via the addition of phosphate-buffered saline (PBS) or sterile physiological saline solution (0.9% NaCl). The needed amount of hydrogelator was weighed in an Eppendorf® and solubilized by the addition of the above solutions. After vortex and sonication steps, the resulting solution was left at room temperature until gelation occurred. The gelation was qualitatively verified by the inverted vial test (if no gravitational flow was visible the gelation was considered successful). It can be noticed that all peptide hydrogelators depicted formed gels in PBS and saline solution at a concentration of 1 to 2% w/v.

Compound | Gelation behaviour | Minimum gelation concentration (w/v % in PBS) | Biogel formation
NCCCC[C@H](NC(=O)[C@H](CC1CCCCC1)NC(=O)[C@H](CCC(N)=O)NC(=O)[C@H](CC1CCCCC1)NC(=O)[C@H](CCC(=O)O)NC(=O)[C@@H](N)CC1CCCCC1)C(N)=O [compound 9, H-Cha-Glu-Cha-Gln-Cha-Lys-NH2] (H-[Cha]E[Cha]Q[Cha]K-NH2) | formed gels | 2 w/v % | –
NCCCC[C@H](NC(=O)[C@H](Cc1ccc2ccccc2c1)NC(=O)[C@H](CCC(N)=O)NC(=O)[C@H](Cc1ccc2ccccc2c1)NC(=O)[C@H](CCC(=O)O)NC(=O)[C@@H](N)Cc1ccc2ccccc2c1)C(N)=O [compound 13, H-(2-Nal)-Glu-(2-Nal)-Gln-(2-Nal)-Lys-NH2] (H-[2Nal]E[2Nal]Q[2Nal]K-NH2) | – | 2 w/v % | –
NCCCC[C@H](NC(=O)[C@H](Cc1cccc(Br)c1)NC(=O)[C@H](CCC(N)=O)NC(=O)[C@H](Cc1ccccc1)NC(=O)[C@H](CCC(N)=O)NC(=O)[C@@H](N)Cc1ccccc1)C(N)=O [compound 31, H-Phe-Gln-Phe-Gln-Phe(3Br)-Lys-NH2] (H-FQFQ[Phe(3-Br)]K-NH2) | – | 1-2 w/v % | –
NCCCC[C@H](NC(=O)[C@H](Cc1cccc(Br)c1)NC(=O)[C@H](CCC(N)=O)NC(=O)[C@H](Cc1cccc(Br)c1)NC(=O)[C@H](CCC(N)=O)NC(=O)[C@@H](N)Cc1ccccc1)C(N)=O [compound 32, H-Phe-Gln-Phe(3Br)-Gln-Phe(3Br)-Lys-NH2] (H-FQ[Phe(3-Br)]Q[Phe(3-Br)]K-NH2) | – | 1-2 w/v % | –
NCCCC[C@H](NC(=O)[C@H](Cc1ccccc1)NC(=O)[C@H](CCC(N)=O)NC(=O)[C@H](Cc1cccc(Br)c1)NC(=O)[C@H](CCC(N)=O)NC(=O)[C@@H](N)Cc1ccccc1)C(N)=O [compound 34, H-Phe-Gln-Phe(3Br)-Gln-Phe-Lys-NH2] (H-FQ[Phe(3-Br)]QFK-NH2) | – | 1-2 w/v % | –
NCCCC[C@H](NC(=O)[C@H](Cc1ccc(Br)cc1)NC(=O)[C@H](CCC(N)=O)NC(=O)[C@H](Cc1ccc(Br)cc1)NC(=O)[C@H](CCC(N)=O)NC(=O)[C@@H](N)Cc1ccc(Br)cc1)C(N)=O [compound 35, H-Phe(4Br)-Gln-Phe(4Br)-Gln-Phe(4Br)-Lys-NH2] (H-[Phe(4-Br)]Q[Phe(4-Br)]Q[Phe(4-Br)]K-NH2) | – | 1-2 w/v % | –
NCCCC[C@H](NC(=O)[C@H](Cc1cccc(I)c1)NC(=O)[C@H](CCC(N)=O)NC(=O)[C@H](Cc1ccccc1)NC(=O)[C@H](CCC(N)=O)NC(=O)[C@@H](N)Cc1ccccc1)C(N)=O [compound 36, H-Phe-Gln-Phe-Gln-Phe(3I)-Lys-NH2] (H-FQFQ[Phe(3-I)]K-NH2) | – | 1-2 w/v % | –
NCCCC[C@H](NC(=O)[C@H](Cc1cccc(I)c1)NC(=O)[C@H](CCC(N)=O)NC(=O)[C@H](Cc1cccc(I)c1)NC(=O)[C@H](CCC(N)=O)NC(=O)[C@@H](N)Cc1ccccc1)C(N)=O [compound 37, H-Phe-Gln-Phe(3I)-Gln-Phe(3I)-Lys-NH2] (H-FQ[Phe(3-I)]Q[Phe(3-I)]K-NH2) | – | 1-2 w/v % | –
Ac-Phe-Glu-Phe*-Gln-Phe-Lys-NH2 [peptide 3] | macroscopic aggregation | – | –
H-AEAQAK-NH2 [compound 8, H-Ala-Glu-Ala-Gln-Ala-Lys-NH2] | remained in solution | – | –
H-DLys-DPhe-DAsn-DPhe*-DGlu-DPhe-NH2 (H-[dK][dF][dN]F[dE][dF]-NH2; not fully specified (residue 4)) [compound 22] | – | 2 w/v % | –
H-DLys-DPhe-DGln-DPhe*-DGlu-DPhe-NH2 (H-[dK][dF][dQ]F[dE][dF]-NH2; not fully specified (residue 4)) [compound 19] | – | 2 w/v % | –
H-DLys-DPhe-DGlu-DPhe*-DGlu-DPhe-NH2 (H-[dK][dF][dE]F[dE][dF]-NH2; not fully specified (residue 4)) [compound 23] | – | 2 w/v % | –
H-DPhe-DGlu-DPhe*-DGln-DPhe-DLys-NH2 (H-[dF][dE]F[dQ][dF][dK]-NH2; not fully specified (residue 3)) [compound 17] | – | 2 w/v % | –
H-DPhe-DGlu-DPhe*-DGln-DPhe-DLys-OH (H-[dF][dE]F[dQ][dF][dK]-OH; not fully specified (residue 3)) [compound 25] | – | 1 w/v % | –
H-IEIQIK-NH2 [compound 5, H-Ile-Glu-Ile-Gln-Ile-Lys-NH2] | formed gels | 2 w/v % | –
H-Leu-Glu-Leu-Gln-Leu-Lys-NH2 (H-LELQLK-NH2) [peptide 6] | remained in solution | – | –
H-Lys-Phe-Gln-Phe*-Glu-Phe-OH (H-KFQ[Phe∗]EF-OH; not fully specified; reading uncertain) [compound 26] | – | 2 w/v % | –
H-Phe-Glu-Phe*-Asn-Phe-Lys-NH2 (H-FE[Phe∗]NFK-NH2; not fully specified; reading uncertain) [compound 11] | – | 1 w/v % | –
H-Phe-Glu-Phe*-Asn-Phe-Lys-OH (H-FE[Phe∗]NFK-OH; not fully specified; reading uncertain) [compound 10] | – | 1 w/v % | –
H-Phe-Glu-Phe*-Gln-Trp-Lys-NH2 (H-FE[Phe∗]QWK-NH2; not fully specified; reading uncertain) [compound 15] | – | 2 w/v % | –
H-Phe-Glu-Phe*-Lys-Phe-Ser-NH2 (H-FE[Phe∗]KFS-NH2; not fully specified; reading uncertain) [compound 20] | – | 1 w/v % | –
H-Phe-Glu-Trp*-Gln-Phe-Lys-NH2 (H-FE[Trp∗]QFK-NH2; not fully specified; reading uncertain) [compound 21] | – | 2 w/v % | –
H-Trp-Glu-Phe*-Gln-Phe-Lys-NH2 (H-WE[Phe∗]QFK-NH2; not fully specified; reading uncertain) [compound 14] | – | 2 w/v % | –
H-VEVQVK-NH2 [compound 7, H-Val-Glu-Val-Gln-Val-Lys-NH2] | remained in solution | – | –
SEQ ID NO: 56, modified by the inclusion of an ester as linker: biogel MOJ-02 modified by an ester linker (spacer) between the hydrogelator part and the biological active ingredient (Y[dR]FFQ[β3hF]FQFK-NH2; not fully specified (residue 9); also: ester linker between hydrogelator part and active ingredient, position not given here) | – | – | able to form a biogel spontaneously

Reference: US12383628B2 (priority 2016, dated 2025)
